These results are taken from PubChem BioAssay AID1259407 (Chemical Carcinogenesis Research Information System (CCRIS), 2018).

The data set relates to CCRIS mutagenicity, Ames/micronucleus/aberration tests. Briefly: CCRIS mutagenicity studies.
The mark [1] stands for this setting: Test System: AMES SALMONELLA TYPHIMURIUM, Strain/Indicator: TA98, Metabolic Activation: NONE, Method: PREINCUBATION
Setting [2] is: Test System: AMES SALMONELLA TYPHIMURIUM, Strain/Indicator: TA100, Metabolic Activation: NONE, Method: PREINCUBATION
Setting [3] is: Test System: AMES SALMONELLA TYPHIMURIUM, Strain/Indicator: TA1535, Metabolic Activation: NONE, Method: PREINCUBATION

Molecules are shown by their SMILES. The source made the active and inactive calls. The rule behind the calls is not given here.

As for `O=NN1CCOCC1`, the mutagenic call (End Point: IN VITRO CHROMOSOMAL ABERRATIONS, Test System: HEPG2 HEPATOMA (HUMAN), Metabolic Activation: NONE) is “active; positive”; the mutagenic call (End Point: IN VITRO CHROMOSOMAL ABERRATIONS, Test System: V79 CELLS, Metabolic Activation: NONE) is “active; positive”; the mutagenic call (End Point: IN VITRO CHROMOSOMAL ABERRATIONS, Test System: VH10 CELLS (HUMAN), Metabolic Activation: NONE) is “inactive; negative”; the mutagenic call (Test System: AMES SALMONELLA TYPHIMURIUM, Strain/Indicator: TA98, Metabolic Activation: HAMSTER, LIVER, S-9, AROCLOR 1254 (30%), Method: PREINCUBATION) was “inactive; negative”; the mutagenic call under setting [1] was “inactive; negative”; the mutagenic call (Test System: AMES SALMONELLA TYPHIMURIUM, Strain/Indicator: TA98, Metabolic Activation: RAT, LIVER, S-9, AROCLOR 1254 (30%), Method: PREINCUBATION) is “inactive; negative”. Further, the mutagenic call by setting is: (Test System: AMES SALMONELLA TYPHIMURIUM, Strain/Indicator: TA98, Metabolic Activation: S-9, Method: PREINCUBATION) “inactive; negative”; (Test System: AMES SALMONELLA TYPHIMURIUM, Strain/Indicator: TA100, Metabolic Activation: HAMSTER, LIVER, S-9, AROCLOR 1254 (30%), Method: PREINCUBATION) “active; positive”; under setting [2], “inactive; negative”; (Test System: AMES SALMONELLA TYPHIMURIUM, Strain/Indicator: TA100, Metabolic Activation: RAT, LIVER, S-9, AROCLOR 1254 (30%), Method: PREINCUBATION) “active; positive”; (Test System: AMES SALMONELLA TYPHIMURIUM, Strain/Indicator: TA100, Metabolic Activation: RAT, LIVER, S-9, AROCLOR 1254, Method: PREINCUBATION) “active; positive”; (Test System: AMES SALMONELLA TYPHIMURIUM, Strain/Indicator: TA100, Metabolic Activation: S-9, Method: PREINCUBATION) “active; positive”. In addition, the mutagenic call is, setting by setting: (Test System: AMES SALMONELLA TYPHIMURIUM, Strain/Indicator: TA100, Metabolic Activation: TOBACCO CELLS, Method: PREINCUBATION) “inactive; negative”; (Test System: AMES SALMONELLA TYPHIMURIUM, Strain/Indicator: TA104, Metabolic Activation: RAT, LIVER, S-9, AROCLOR 1254, Method: PREINCUBATION) “active; positive”; (Test System: AMES SALMONELLA TYPHIMURIUM, Strain/Indicator: TA1530, Metabolic Activation: RAT, LIVER, S-9, Method: STANDARD PLATE) “active; positive”; under setting [3], “inactive; negative”; (Test System: AMES SALMONELLA TYPHIMURIUM, Strain/Indicator: TA1535, Metabolic Activation: RAT, LIVER, HEPATOCYTES, Method: PREINCUBATION) “active; positive”; (Test System: AMES SALMONELLA TYPHIMURIUM, Strain/Indicator: TA1535, Metabolic Activation: RAT, LIVER, S-9, AROCLOR 1254, Method: PREINCUBATION) “active; positive”. Further, the mutagenic call by setting is: (Test System: AMES SALMONELLA TYPHIMURIUM, Strain/Indicator: TA1535, Metabolic Activation: RAT, LIVER, S-9, AROCLOR, Method: PREINCUBATION) “active; positive”; (Test System: AMES SALMONELLA TYPHIMURIUM, Strain/Indicator: TA1535, Metabolic Activation: RAT, LIVER, S-9, SODIUM PHENOBARBITONE, Method: PREINCUBATION) “active; positive”; (Test System: AMES SALMONELLA TYPHIMURIUM, Strain/Indicator: TA1535, Metabolic Activation: RAT, LIVER, S-9, Method: PREINCUBATION) “active; positive”; (Test System: AMES SALMONELLA TYPHIMURIUM, Strain/Indicator: TA1975, Metabolic Activation: RAT, LIVER, S-9, AROCLOR 1254, Method: PREINCUBATION) “active; positive”; (Test System: CHINESE HAMSTER V-79, Strain/Indicator: V-79/8-AZAGUANINE, Metabolic Activation: RAT, LIVER, S-15, PHENOBARBITAL, Method: STANDARD PLATE) “active; positive”; (Test System: UDS RODENT HEPATOCYTES, Strain/Indicator: THY INCORP (NON-S-PHASE), Method: AUTORADIOGRAPHY) “active; positive”.

Consider `CCOC(=O)CNC(=O)C(C)(C)Br`, for which the mutagenic call (Test System: AMES SALMONELLA TYPHIMURIUM, Strain/Indicator: TA100, Metabolic Activation: MOUSE, LIVER, S-9, AROCLOR 1254, Method: STANDARD PLATE) was “inactive; negative” and the mutagenic call (Test System: AMES SALMONELLA TYPHIMURIUM, Strain/Indicator: TA100, Metabolic Activation: NONE, Method: STANDARD PLATE) was “inactive; negative”.

As for `O=c1n(Cl)c(=O)n(Cl)c(=O)n1Cl`, the mutagenic call is “inactive; negative” under setting [1]; “inactive; negative” (Test System: AMES SALMONELLA TYPHIMURIUM, Strain/Indicator: TA98, Metabolic Activation: RAT LIVER S-9, PHENOBARBITAL AND BETA-NAPHTHOFLAVONE, Method: PREINCUBATION); “inactive; negative” (Test System: AMES SALMONELLA TYPHIMURIUM, Strain/Indicator: TA98, Metabolic Activation: RAT, LIVER, S-9, KC 500, Method: PREINCUBATION); “inactive; negative” under setting [2]; “inactive; negative” (Test System: AMES SALMONELLA TYPHIMURIUM, Strain/Indicator: TA100, Metabolic Activation: RAT LIVER S-9, PHENOBARBITAL AND BETA-NAPHTHOFLAVONE, Method: PREINCUBATION); “inactive; negative” (Test System: AMES SALMONELLA TYPHIMURIUM, Strain/Indicator: TA100, Metabolic Activation: RAT, LIVER, S-9, KC 500, Method: PREINCUBATION). Moreover, the mutagenic call by setting is: under setting [3], “inactive; negative”; (Test System: AMES SALMONELLA TYPHIMURIUM, Strain/Indicator: TA1535, Metabolic Activation: RAT LIVER S-9, PHENOBARBITAL AND BETA-NAPHTHOFLAVONE, Method: PREINCUBATION) “inactive; negative”; (Test System: AMES SALMONELLA TYPHIMURIUM, Strain/Indicator: TA1535, Metabolic Activation: RAT, LIVER, S-9, KC 500, Method: PREINCUBATION) “inactive; negative”; (Test System: AMES SALMONELLA TYPHIMURIUM, Strain/Indicator: TA1537, Metabolic Activation: NONE, Method: PREINCUBATION) “inactive; negative”; (Test System: AMES SALMONELLA TYPHIMURIUM, Strain/Indicator: TA1537, Metabolic Activation: RAT LIVER S-9, PHENOBARBITAL AND BETA-NAPHTHOFLAVONE, Method: PREINCUBATION) “inactive; negative”; (Test System: AMES SALMONELLA TYPHIMURIUM, Strain/Indicator: TA1537, Metabolic Activation: RAT, LIVER, S-9, KC 500, Method: PREINCUBATION) “inactive; negative”. Further, the mutagenic call is, setting by setting: (Test System: AMES SALMONELLA TYPHIMURIUM, Strain/Indicator: TA1538, Metabolic Activation: NONE, Method: PREINCUBATION) “inactive; negative”; (Test System: AMES SALMONELLA TYPHIMURIUM, Strain/Indicator: TA1538, Metabolic Activation: RAT LIVER S-9, PHENOBARBITAL AND BETA-NAPHTHOFLAVONE, Method: PREINCUBATION) “inactive; negative”; (Test System: AMES SALMONELLA TYPHIMURIUM, Strain/Indicator: TA1538, Metabolic Activation: RAT, LIVER, S-9, KC 500, Method: PREINCUBATION) “inactive; negative”; (Test System: E. COLI, Strain/Indicator: WP2 UVRA, Metabolic Activation: NONE, Method: PREINCUBATION) “inactive; negative”; (Test System: E. COLI, Strain/Indicator: WP2UVRA, Metabolic Activation: NONE, Method: PREINCUBATION) “inactive; negative”; (Test System: E. COLI, Strain/Indicator: WP2UVRA, Metabolic Activation: RAT LIVER S-9, PHENOBARBITAL AND BETA-NAPHTHOFLAVONE, Method: PREINCUBATION) “inactive; negative”. For the same compound, for the setting “Test System: E. COLI, Strain/Indicator: WP2 UVRA, Metabolic Activation: RAT, LIVER, S-9, KC 500, Method: PREINCUBATION”, the mutagenic call is “inactive; negative”.
